Results reported in patent US6710084B2, “Inhibition of TNFα-initiated neutrophil response” (Brigham and Women's Hospital, priority 1999, dated 2004).

Key:
human PMN = assay: TNFα-stimulated superoxide anion generation by human PMN (cytochrome C reduction); assay type: cell-based; details: for inhibition of TNFα-stimulated superoxide anion generation: 10 nM compound, 5 min, then TNFα 50 ng/ml
Method: Human PMN were incubated with either vehicle alone or indicated concentrations of LXA4, 15 R/S-methyl-LXA4 or 16-phenoxy-LXA4 for 5 min and then with TNFα (50 ng/ml) for an additional 10 min. Values are the mean±SEM for LXA4 (n=3), 15 R/S-methyl-LXA4 (n=4) or 16-phenoxy-LXA4 (n=3).
Venous blood from healthy donors was collected using sterile conditions using acid citrate dextrose (ACD) as an anticoagulant, and PMN were isolated as in (15). PMN were suspended in cold (4° C.) Hank's medium (supplemented with 1.6 mM Ca^++, 0.1% FCS, 2 mM L-glutamine, 1% penicillin, and 2% streptomycin, pH 7.4). […] To examine superoxide production, PMN (1.0×10^6/ml) were placed at 37° C. (3 min) and then exposed to either vehicle (0.1% ethanol) or synthetic LXA4, 15R/S-methyl LXA4 or 16-phenoxy-LXA4 for 5 min at 37° C. Before adding TNFα (50 ng/ml), PMN were incubated with cytochrome C (0.7 mg/ml) for 10 min at 37° C. […] reduction of cytochrome C was terminated by rapidly placing tubes in an ice-water bath. The extent of cytochrome C reduction in each supernatant was determined at 550 nm in reference to control values obtained when superoxide dismutase was added before a stimulus or vehicle control. Cytochrome C reduction was quantitated using the extinction coefficient of 21.1/mmol/L.
TNFα, although a modest agonist of O2^−generation by human PMN, is a physiologically relevant stimulus for the generation of reactive oxygen species (ROS) by human PMN that can play critical roles in local tissue injury during both inflammation and reperfusion (Tsujii, M., S. Kawano, S. Tsuji, H. Sawaoka, M. Hori, and R. N. DuBois. 1998. Cyclooxygenase regulates angiogenesis induced by colon cancer cells. Cell 93:705-716; Shibuya, H., N. Ohkohchi, S. Tsukamoto, and S. Satomi. 1997. Tumor necrosis factor-induced, superoxide-mediated neutrophil accumulation in cold ischemic/reperfused rat liver. Hepatology 26:113-120; Jaeschke, H., A. Farhood, and C. W. Smith. 1990. Neutrophils contribute to ischemia/reperfusion injury in rat liver in vivo. FASEB J. 4:3355-3359). In FIG. 1, the impact of LXA4 and ATL related bioactive stable analogs were evaluated on TNFα stimulated superoxide anion production. […] 15R/S-methyl-LXA4 covers both LXA4 and ATL in structure, and 16-phenoxy-LXA4 is a LXA4 analog (see FIG. 1).

PMN = assay: PMA- or FMLP-stimulated O2- production by PMN; assay type: cell-based, human
IL-1β [1] = assay: TNFα-induced IL-1β release by human PMN; assay type: cell-based; details: for inhibition of IL-1β release: 100 nM compound, human PMN
Description: Supernatants were collected, and IL-1β was quantitated by ELISA. Results are expressed as mean±SD of duplicates, and are from one experiment representative of n=3. […] Values represent the mean ±SEM, n=3. At all time intervals tested, TNFα induced a significant appearance of IL-1β over vehicle-treated cells (*p<0.01).
(§1) Human and mouse recombinant TNFα and human recombinant GM-CSF were obtained from Boehringer Mannheim (Indianapolis, Ind.). Dulbecco's PBS (Mg^++ and Ca^++-free), RPMI-1640 and FCS were purchased from Bio Whittaker Inc. (Walkersville, Md.). Ficoll-Hypaque was from Organon Teknika Corp. (Durham, N.C.) and Hank's balanced salt solution was purchased from Gibco BRL (Grand Island, N.Y.). Serum bovine albumin, dextran, antibiotics, L-glutamine, cytochrome C, superoxide dismutase and zymosan were obtained from Sigma (St. Louis, Mo.). The assessment of human IL-1β in supernatants was performed by using an immunometric assay with acetylcholine esterase (Cayman Chemical, Ann Arbor, Mich.). Murine IL-1β was assessed using an ELISA from Endogen (Woburn, Mass.). ELISAs for IL-4 and IL-10 were from Amersham (Arlington Heights, Ill.); MIP-2 and IL-13 ELISAs were from R&D Systems (Minneapolis, Minn.). LXA4 and ATL metabolically stable analogs were prepared and characterized, including nuclear magnetic resonance spectroscopy, as in (14). Concentrations of each LX analog were determined using an extinction coefficient of 50,000 M^−1.cm^−1.just prior to each experiment. Where indicated, statistical analyses were performed using Student's non-paired t-test (two-tailed), and significance (*) was considered to be attained when P was <0.05.

leukocyte infiltration = assay: TNFα-induced leukocyte infiltration in murine air pouches
Method: One ml of sterile PBS containing either 0.1% ethanol, TNFα, 15 R/S-methyl-LXA4, or TNFα plus 15 R/S-methyl-LXA4 was injected into the pouches, and the exudates were collected at indicated time periods. The total number of leukocytes was counted as in Materials & Methods. The results are expressed as mean±SEM from three different mice for each point.
Six to eight week old male BALB/c mice were obtained from Taconic Farms (Germantown, N.Y.). Air pouches were raised on the dorsum by s.c. injection of 3 ml of sterile air on day 0 and day 3. All experiments were conducted on day 6 (16). Individual air pouches (one per mouse) were injected with either vehicle alone (0.1% ethanol), TNFα, 15 R/S-methyl-LXA4 or TNFα plus 15 R/S-methyl-LXA4, and each was suspended in 1 ml endotoxin-free PBS immediately before injection into pouch cavities. At given intervals, the mice were sacrificed and individual air pouches were lavaged three times with sterile PBS (1 ml). The exudates were centrifuged at 2000 RPM (5 min) and the supernatants were removed. Cell pellets were suspended in PBS (200 μl) for enumeration and assessed for viability. Fifty μl of each cell suspension was mixed with 150 μl 30% BSA and then centrifuged onto microscope slides at 500 RPM for 5 min using a cytospin centrifuge, air dried, and stained with Giemsa-Wright.
Also, inflammatory exudates were collected 4 h after injection with vehicle alone, TNFα, 15 R/S-methyl-LXA4 alone, or TNFα plus 15 R/S-methyl-LXA4, and cell types were enumerated.

MIP-2 = MIP-2 in murine air pouch exudates (ELISA); assay type: in vivo, BALB/c mice
Method: (§2) Experiments were conducted as described in FIG. 5 legend. Quantitation for IL-1β, IL-4, IL-10, IL-13 and MIP-2 was performed using ELISA with air pouch cell-free exudates. […] Changes in IL-1β, MIP-2 and IL-4 were significant at all tested time intervals (p<0.01).
as §1
(§3) Exudates from selected time intervals were collected and cell-free supernatants assessed for the presence of these murine cytokines. TNFα induced maximal detectable amounts of MIP-2 and IL-1β within 90 minutes (not shown). 15 R/S-methyl-LXA4 (25 mnoles) inhibited TNFα-stimulated MIP-2 and IL-1β release by 48% and 30% respectively (FIG. 6). […] This stimulation of IL-4 was observed both in the absence as well as presence of TNFα. Neither IL-10 nor IL-13 was detected within the pouch exudates.

LXA4 receptor = LXA4 receptor (Homo sapiens, UniProt P25090); assay: Involvement of LXA4 receptor in TNFα-stimulated IL-1β release (anti-LXA4-R antibodies)
Chain of LXA4 receptor (P25090 whole entry): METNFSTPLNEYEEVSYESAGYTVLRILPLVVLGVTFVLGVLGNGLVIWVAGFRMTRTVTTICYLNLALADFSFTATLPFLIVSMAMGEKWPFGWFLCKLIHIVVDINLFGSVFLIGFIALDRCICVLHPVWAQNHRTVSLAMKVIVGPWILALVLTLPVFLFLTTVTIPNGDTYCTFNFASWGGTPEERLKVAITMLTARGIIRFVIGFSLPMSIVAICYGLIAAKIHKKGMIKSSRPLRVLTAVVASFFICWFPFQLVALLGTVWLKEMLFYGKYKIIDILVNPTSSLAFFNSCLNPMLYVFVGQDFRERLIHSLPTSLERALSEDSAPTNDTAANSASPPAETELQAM
Method: PMN were incubated with either IgG purified from pre-immune serum (50 μg/ml) or anti-LXA4 receptor (50 μg/ml) for 1 h at 4° C., then exposed to agonists for 12 h at 37° C. and 5% CO2. Values are expressed as mean±SD from an experiment performed in triplicate, which is representative of three distinct experiments each performed with different donors (*p<0.01).
PMN were incubated with ˜50 μg/ml of either preimmune protein-A purified IgG or IgG directed against LXA4-R for 1 h at 4° C. prior to exposure to TNFα (10 ng/ml) and 15 R/S-methyl-LXA4 (100 nM).

IL-1β [2] = assay: IL-1β in murine air pouch exudates (ELISA); assay type: in vivo, BALB/c mice
Method: as §2, §1, §3

IL-1β messenger RNA = assay: TNFα-triggered IL-1β gene expression in PMN (Northern blot); details: 100 nM compound plus TNFα 10 ng/ml; 6 h
Method: PMN were incubated with either 0.1% ethanol (vehicle) or 15 R/S-methyl-LXA4 at 10, 100, and 1000 nM, in the presence or absence of TNFα (10 ng/ml), for 6 h at 37° C. Northern blots were performed in order to detect IL-1β messenger RNA.
PMN were exposed to increasing concentrations of 15 R/S-methyl-LXA4, 16-phenoxy-LXA4 or native LXA4 in the presence of TNFα (10 ng/ml) or vehicle alone.

IL-4 = IL-4 in murine air pouch exudates (ELISA); assay type: in vivo, BALB/c mice; details: both in the absence as well as presence of TNFα
Method: as §2
as §1, with “ELISAs for IL-4 and IL-10 were from Amersham (Arlington Heights, Ill.); MIP-2 and IL-13 ELISAs were from R&D Systems (Minneapolis, Minn.). LXA4 and ATL metabolically stable analogs were prepared and characterized, including nuclear magnetic resonance spectroscopy, as in (14).” left out, “Where indicated, statistical analyses were performed using Student's non-paired t-test (two-tailed), and significance (*) was considered to be attained when P was <0.05.” left out
Exudates from selected time intervals were collected and cell-free supernatants assessed for the presence of these murine cytokines. […] Neither IL-10 nor IL-13 was detected within the pouch exudates.

IL-1β [3] = assay: IL-1β levels in supernatants of PMN incubated with TNFα, GM-CSF or zymosan; assay type: cell-based, human
Description: as §1, with “<0.05. […]” for “<0.05.”

[4] = compound 25 nmoles plus TNFα 10 ng, 4 h post-injection
[5] = injected alone, 4 h post-injection, TNFα 10 ng or compound 25 nmoles
[6] = 25 mnoles, air pouch exudates (FIG. 6)

With `CCCCC[C@H](O)/C=C/C=C\C=C\C=C\[C@@H](O)[C@@H](O)CCCC(=O)O` (relative stereo) [LXA4, 5S, 6R, 15S-trihydroxy-7,9,13-trans-11-cis-eicosatetraenoic acid, reference compound] the “inhibition of TNFα-stimulated superoxide anion generation” value (human PMN) was 34.3±2.3%, the “inhibition of FMLP-stimulated O2- production” value (PMN) was “neither LXA4 nor its analogs inhibit” and the “inhibition of PMA-stimulated O2- production” value (PMN; PMA 100 nM, n=3) was “neither LXA4 nor its analogs inhibit”. The “inhibition of IL-1β release” value (IL-1β [1]; TNFα 10 ng/ml) was “comparable” and the “effect on TNFα-induced IL-1β release” value (IL-1β [1]; LXA4 100 nM, TNFα 10 ng/ml, 20 h (FIG. 2A)) was “specifically inhibited”.
In the case of `CCCCCC(C)(O)/C=C/C=C\C=C\C=C\[C@@H](O)[C@@H](O)CCCC(=O)OC` (stereo partly drawn) [15 R/S-methyl-LXA4, 15R/S-methyl-LXA4-methyl ester], the “time at which inhibition of leukocyte recruitment was evident” value (leukocyte infiltration; 25 nmoles) is reported as 1 h, the “inhibition of TNFα-stimulated recruitment of leukocytes to the air pouch” value (leukocyte infiltration; 25 nmoles into pouch, murine TNFα 10 ng/ml (FIG. 5)) is reported as 62% and the “leukocyte infiltration at 8 h” value (leukocyte infiltration; 8 h, 25 nmoles (FIG. 5, insert)) is reported as “remained significantly reduced”. The “reduction in leukocyte infiltration” value (leukocyte infiltration; between 2 h and 4 h, 25 nmoles) was “more than 60%”, the “Number of leukocytes present in the pouch: Eosinophils/Basophils” value (“Number … Eosinophils/Basophils” below) (leukocyte infiltration; [4]) was 0.13 ± 0.01 x 10^6 and the “Number of leukocytes present in the pouch: Monocytes/Macrophages” value (from here on “Number … Monocytes/Macrophages”) (leukocyte infiltration; [4]) was 0.10 ± 0.01 x 10^6. For the same compound, the “Number of leukocytes present in the pouch: Neutrophils” value (shortened to “Number … Neutrophils”) (leukocyte infiltration; [4]) was 0.98 ± 0.10 x 10^6, the “Percent inhibition of TNFα-induced infiltration: Eosinophils/Basophils” value (leukocyte infiltration; [4]) was “(56.0%)” and the “Percent inhibition of TNFα-induced infiltration: Monocytes/Macrophages” value (leukocyte infiltration; [4]) was “(50%)”. For the same compound, the “Percent inhibition of TNFα-induced infiltration: Neutrophils” value (leukocyte infiltration; [4]) was “(59.1%)”, the “Number … Eosinophils/Basophils” value (leukocyte infiltration; [5]) was 0.03 ± 0.01 x 10^6 and the “Number … Monocytes/Macrophages” value (leukocyte infiltration; [5]) was 0.14 ± 0.01 x 10^6. For the same compound, the “Number … Neutrophils” value (leukocyte infiltration; [5]) was 0.25 ± 0.01 x 10^6, the “leukocyte infiltration after injection of the analog alone” value (leukocyte infiltration; without TNFα) was “did not cause a significant leukocyte infiltration” and the “mononuclear cell influx, compound alone” value (leukocyte infiltration; without TNFα, 4 h) was “small but statistically significant increase”. For the same compound, the “potency relative to native LXA4 as inhibitor of TNFα-stimulated superoxide generation” value (human PMN) was “approximately three times more potent”, the “inhibition of TNFα-stimulated superoxide anion generation” value (human PMN) was 81.3±14.1% and the “inhibition of TNFα-stimulated MIP-2 release” value (MIP-2; [6]) was 48%. The “MIP-2 release, compound alone in the air pouch” value (MIP-2; without TNFα) was “did not stimulate”, the “inhibition of IL-1β release” value (LXA4 receptor; 100 nM compound, TNFα 10 ng/ml, 12 h (FIG. 4)) was “about 50%” and the “IL-1β appearance when added together with anti-LXA4-R antibodies in the presence of TNFα” value (LXA4 receptor; 100 nM compound, antibodies ~50 μg/ml) was “did not further inhibit IL-1β appearance”. The “stimulation of IL-1β appearance within supernatants, agent alone” value (LXA4 receptor; without TNFα) was “neither anti-LXA4-R antibodies nor 15 R/S-LXA4 alone stimulated significant amounts of IL-1β”, the “inhibition of TNFα-stimulated IL-1β release” value (IL-1β [2]; [6]) was 30% and the “IL-1β release, compound alone in the air pouch” value (IL-1β [2]; without TNFα) was “did not stimulate”. For the same compound, the “decrease of IL-1β messenger RNA levels compared to TNFα alone” value (IL-1β messenger RNA) was “approximately 60%”, the “inhibition of TNFα-induced IL-1β release” value (IL-1β [1]; 10 nM compound, TNFα 10 ng/ml (FIG. 2B)) was “clear statistically significant inhibition” and the “time within which inhibition of IL-1β release was evident” value (IL-1β [1]; 10 nM compound, more prominent after 24 h) was at most 6 h. For the same compound, the “inhibition of IL-1β release” value (IL-1β [1]; TNFα 10 ng/ml) was “approximately 60%” and the “appearance of IL-4 within the exudates” value (IL-4) was “stimulated the appearance of IL-4”.
For `COC(=O)CCCC(O)C(O)C=CC=CC=CC=CC(O)COc1ccccc1` (stereo not drawn) [16-phenoxy-LXA4, 16 phenoxy-lipoxin A4 methyl ester], the “potency relative to native LXA4 as inhibitor of TNFα-stimulated superoxide generation” value (human PMN) was “approximately three times more potent”, the “inhibition of TNFα-stimulated superoxide anion generation” value (human PMN) was 93.7±3.2% and the “inhibition of IL-1β release” value (IL-1β [1]; TNFα 10 ng/ml) was “approximately 40%”.
In the case of “GM-CSF: human recombinant GM-CSF, agonist of IL-1β release”, the “approximate EC50 for increase in IL-1β levels in supernatants” value (IL-1β [3]; agonist GM-CSF) is reported as about 10 U/ml.
TNFα [reference compound] was tested, and the “Number … Eosinophils/Basophils” value (leukocyte infiltration; [5]) was 0.30 ± 0.01 x 10^6, the “Number … Monocytes/Macrophages” value (leukocyte infiltration; [5]) was 0.20 ± 0.01 x 10^6 and the “Number … Neutrophils” value (leukocyte infiltration; [5]) was 2.40 ± 0.10 x 10^6. The “time of maximal accumulation of leukocytes in the air pouch” value (leukocyte infiltration; murine TNFα 10 ng/ml) was 4 h, the “time to maximal detectable amounts of MIP-2” value (MIP-2; TNFα-injected pouches) was at most 90 min and the “time to maximal detectable amounts of IL-1β” value (IL-1β [2]; TNFα-injected pouches) was at most 90 min. For the same compound, the “approximate EC50 for increase in IL-1β levels in supernatants” value (IL-1β [3]; agonist TNFα) was about 10 ng/mL.
